# Columns and labels:
# [1] = cited from earlier work
# [2] = dogs, single oral administration; cited from earlier work
# [3] = Concentration of meloxicam in plasma of dogs after single subcutaneous silica hydrogel depot; assay type: in vivo; conditions: dog, sc, 3.16 mg meloxicam/kg bodyweight, single s.c. silica hydrogel depot
# Description: Example 1 relates to animal studies carried out. […] The appropriate dose of TI was administered subcutaneously as a one off dose at the area behind the shoulder blade.
# [4] = Mouse study: body weight at necropsy; assay type: in vivo, mouse (BALB/cAnNCrl, male); conditions: SiO2 left flank, SiO2 with meloxicam right flank, s.c. 0.1 ml
# Description: A mouse study was carried out using 15 animals from University of Turku, Central Animal Laboratory, Pharmacity breeding unity. All animals were BALB/cAnNCrl, male. The animals were acclimatised for 15 days. No period of isolation was needed. At the start of the study the animals were aged 10-13 weeks and weighed 28.9 g±1.38 g (min. 26.6 g, max 31.1 g).
# Administration of the test items was carried out according to the study design set out in Table 3. The test item was administered by subcutaneous (back) injection using a syringe and an 18G needle at a dose volume of 0.1 ml/mouse.
# Animals were weighed and euthanized (CO2) at the end of the experiment (Animals #1, 2, and 3 were not weighed). The injection sites were macroscopically observed and digital pictures from test items in soft tissue was taken at the each time point. The test item (gel) was removed from a soft tissue when possible.
# [5] = Animal 4, necropsy 7 days after injections
# [6] = Animal 7, necropsy 14 days after injections
# [7] = Animal 10, necropsy 28 days after injections
compound,measurement,setting,value
CC(C(=O)O)c1ccc2c(c1)[nH]c1ccc(Cl)cc12 (centres unmarked) [carprofen],Solubility in water,[1],practically insoluble in water
NS(=O)(=O)c1ccc(-n2nc(C(F)(F)F)cc2-c2ccc(F)cc2)cc1 [Mavacoxib],Time a therapeutic level is maintained,[2],one month
Cc1cnc(NC(=O)C2=C(O)c3ccccc3S(=O)(=O)N2C)s1 [meloxicam],concentration at 0 hours,"[3]; Dog 1, 0.0 hours",0 ng/mL
same,concentration at 0.5 hours,"[3]; Dog 1, 0.5 hours",43.2 ng/mL
same,concentration at 1 hours,"[3]; Dog 1, 1.0 hours",132 ng/mL
same,concentration at 2 hours,"[3]; Dog 1, 2.0 hours",296 ng/mL
same,concentration at 3 hours,"[3]; Dog 1, 3.0 hours",379 ng/mL
same,concentration at 4 h,"[3]; Dog 1, 4.0 hours",402 ng/mL
same,concentration at 6 h,"[3]; Dog 1, 6.0 hours",375 ng/mL
same,concentration at 8 h,"[3]; Dog 1, 8.0 hours",294 ng/mL
same,concentration at 12 h,"[3]; Dog 1, 12.0 hours",363 ng/mL
same,concentration at 504 h,"[3]; Dog 1, 504.0 hours",4.3 ng/mL
same,concentration at 576 h,"[3]; Dog 1, 576.0 hours",2.6 ng/mL
same,concentration at 672 h,"[3]; Dog 1, 672.0 hours",1.5 ng/mL
same,concentration at 840 hours,"[3]; Dog 1, 840.0 hours",1 ng/mL
same,concentration at 1008 hours,"[3]; Dog 1, 1008.0 hours",0.9 ng/mL
same,concentration at 1176 hours,"[3]; Dog 1, 1176.0 hours",0.5 ng/mL
same,concentration at 1344 hours,"[3]; Dog 1, 1344.0 hours",0.4 ng/mL
same,concentration at 0 hours,"[3]; Dog 2, 0.0 hours",0 ng/mL
same,concentration at 0.5 hours,"[3]; Dog 2, 0.5 hours",27 ng/mL
same,concentration at 1 hours,"[3]; Dog 2, 1.0 hours",76 ng/mL
same,concentration at 2 hours,"[3]; Dog 2, 2.0 hours",153 ng/mL
same,concentration at 3 hours,"[3]; Dog 2, 3.0 hours",227 ng/mL
same,concentration at 4 h,"[3]; Dog 2, 4.0 hours",257 ng/mL
same,concentration at 6 h,"[3]; Dog 2, 6.0 hours",349 ng/mL
same,concentration at 8 h,"[3]; Dog 2, 8.0 hours",344 ng/mL
same,concentration at 12 h,"[3]; Dog 2, 12.0 hours",447 ng/mL
same,concentration at 504 h,"[3]; Dog 2, 504.0 hours",115 ng/mL
same,concentration at 576 h,"[3]; Dog 2, 576.0 hours",101 ng/mL
same,concentration at 672 hours,"[3]; Dog 2, 672.0 hours",67.3 ng/mL
same,concentration at 840 hours,"[3]; Dog 2, 840.0 hours",40.1 ng/mL
same,concentration at 1008 hours,"[3]; Dog 2, 1008.0 hours",17.9 ng/mL
same,concentration at 1176 hours,"[3]; Dog 2, 1176.0 hours",5.6 ng/mL
same,concentration at 1344 hours,"[3]; Dog 2, 1344.0 hours",2.6 ng/mL
same,concentration at 0 hours,"[3]; Dog 3, 0.0 hours",0 ng/mL
same,concentration at 0.5 hours,"[3]; Dog 3, 0.5 hours",27.1 ng/mL
same,concentration at 1 hours,"[3]; Dog 3, 1.0 hours",93.9 ng/mL
same,concentration at 2 hours,"[3]; Dog 3, 2.0 hours",215 ng/mL
same,concentration at 3 hours,"[3]; Dog 3, 3.0 hours",301 ng/mL
same,concentration at 4 h,"[3]; Dog 3, 4.0 hours",319 ng/mL
same,concentration at 6 h,"[3]; Dog 3, 6.0 hours",359 ng/mL
same,concentration at 8 h,"[3]; Dog 3, 8.0 hours",404 ng/mL
same,concentration at 12 h,"[3]; Dog 3, 12.0 hours",559 ng/mL
same,concentration at 504 h,"[3]; Dog 3, 504.0 hours",33.1 ng/mL
same,concentration at 576 h,"[3]; Dog 3, 576.0 hours",16.6 ng/mL
same,concentration at 672 hours,"[3]; Dog 3, 672.0 hours",11.6 ng/mL
same,concentration at 840 hours,"[3]; Dog 3, 840.0 hours",6.5 ng/mL
same,concentration at 1008 hours,"[3]; Dog 3, 1008.0 hours",5.6 ng/mL
same,concentration at 1176 hours,"[3]; Dog 3, 1176.0 hours",3 ng/mL
same,concentration at 1344 hours,"[3]; Dog 3, 1344.0 hours",2.4 ng/mL
same,Weight at necropsy,[4]; [5],27.3 g
same,Weight gain,[4]; [5],-0.7 g
same,Weight at necropsy,[4]; [6],29.0 g
same,Weight gain,[4]; [6],0.0 g
same,Weight at necropsy,[4]; [7],32.7 g
same,Weight gain,[4]; [7],1.6 g
same,Solubility in methanol,[1]; methanol,very slightly soluble
same,Solubility in strong acids and bases,"[1]; strong acids and bases, compared with water",higher solubility
same,Solubility in water,[1],practically insoluble in water

# From US10548843B2, “Sustained-release silica composite depot non-steroidal anti-inflammatory drug delivery” (Solani Therapeutics, priority 2015, dated 2020)
